Data taken from ChEMBL document CHEMBL4819104, “Discovery of 2-amino-3-amido-5-aryl-pyridines as highly potent, orally bioavailable, and efficacious PERK kinase inhibitors” (Bioorg Med Chem Lett, 2021).

How the values were obtained:
786-0 = experiment: Anticancer activity against human 786-0 cells xenografted in clear cell renal cell carcinoma mouse model assessed as tumor growth inhibition at 10 mg/kg measured at day 28 relative to control; assay type: functional; details: 786-0, 672 h, read-out: TGI
[1] = molecular target: BDNF/NT-3 growth factors receptor (Homo sapiens) (UniProt Q16620); experiment: Inhibition of wild-type human partial length TRKB (Q547 to G838 residues) expressed in mammalian expression system assessed as residual activity at 10 uM by Kinomescan method relative to control
[2] = molecular target: Tyrosine-protein kinase receptor UFO (Homo sapiens) (UniProt P30530); experiment: Inhibition of wild-type human partial length AXL (R497 to Y821 residues) expressed in bacterial expression system assessed as residual activity at 10 uM by Kinomescan method relative to control
[3] = Plasma protein binding in dog; assay type: ADME, cell-free, Canis lupus familiaris; details: read-out: PPB (converted)
[4] = molecular target: T1, Receptor-interacting serine/threonine-protein kinase 1 (Homo sapiens) (UniProt Q13546); experiment: Inhibition of wild-type human partial length RIPK1 (M1 to K305 residues) expressed in bacterial expression system assessed as residual activity at 10 uM by Kinomescan method relative to control
T1 sequence (whole entry): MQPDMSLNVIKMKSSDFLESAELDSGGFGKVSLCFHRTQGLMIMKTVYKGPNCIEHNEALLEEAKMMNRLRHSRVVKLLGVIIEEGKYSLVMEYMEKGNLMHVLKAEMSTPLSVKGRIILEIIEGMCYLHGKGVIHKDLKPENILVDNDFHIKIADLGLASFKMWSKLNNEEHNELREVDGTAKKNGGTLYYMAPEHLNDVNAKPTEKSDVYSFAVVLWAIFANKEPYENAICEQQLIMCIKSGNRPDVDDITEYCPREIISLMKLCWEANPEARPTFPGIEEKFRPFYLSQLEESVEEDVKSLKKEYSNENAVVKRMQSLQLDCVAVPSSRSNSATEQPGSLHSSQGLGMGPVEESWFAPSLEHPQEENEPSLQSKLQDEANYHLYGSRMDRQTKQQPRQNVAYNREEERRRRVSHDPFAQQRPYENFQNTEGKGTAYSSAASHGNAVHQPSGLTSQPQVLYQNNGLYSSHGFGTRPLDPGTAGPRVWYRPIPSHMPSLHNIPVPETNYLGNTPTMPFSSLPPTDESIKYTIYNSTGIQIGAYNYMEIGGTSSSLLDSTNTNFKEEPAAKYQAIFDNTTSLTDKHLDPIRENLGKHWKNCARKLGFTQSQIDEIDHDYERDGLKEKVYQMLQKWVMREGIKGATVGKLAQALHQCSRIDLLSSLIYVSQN

Sequence of Tyrosine-protein kinase receptor UFO (Homo sapiens) (P30530 whole entry, the tested form may be a part): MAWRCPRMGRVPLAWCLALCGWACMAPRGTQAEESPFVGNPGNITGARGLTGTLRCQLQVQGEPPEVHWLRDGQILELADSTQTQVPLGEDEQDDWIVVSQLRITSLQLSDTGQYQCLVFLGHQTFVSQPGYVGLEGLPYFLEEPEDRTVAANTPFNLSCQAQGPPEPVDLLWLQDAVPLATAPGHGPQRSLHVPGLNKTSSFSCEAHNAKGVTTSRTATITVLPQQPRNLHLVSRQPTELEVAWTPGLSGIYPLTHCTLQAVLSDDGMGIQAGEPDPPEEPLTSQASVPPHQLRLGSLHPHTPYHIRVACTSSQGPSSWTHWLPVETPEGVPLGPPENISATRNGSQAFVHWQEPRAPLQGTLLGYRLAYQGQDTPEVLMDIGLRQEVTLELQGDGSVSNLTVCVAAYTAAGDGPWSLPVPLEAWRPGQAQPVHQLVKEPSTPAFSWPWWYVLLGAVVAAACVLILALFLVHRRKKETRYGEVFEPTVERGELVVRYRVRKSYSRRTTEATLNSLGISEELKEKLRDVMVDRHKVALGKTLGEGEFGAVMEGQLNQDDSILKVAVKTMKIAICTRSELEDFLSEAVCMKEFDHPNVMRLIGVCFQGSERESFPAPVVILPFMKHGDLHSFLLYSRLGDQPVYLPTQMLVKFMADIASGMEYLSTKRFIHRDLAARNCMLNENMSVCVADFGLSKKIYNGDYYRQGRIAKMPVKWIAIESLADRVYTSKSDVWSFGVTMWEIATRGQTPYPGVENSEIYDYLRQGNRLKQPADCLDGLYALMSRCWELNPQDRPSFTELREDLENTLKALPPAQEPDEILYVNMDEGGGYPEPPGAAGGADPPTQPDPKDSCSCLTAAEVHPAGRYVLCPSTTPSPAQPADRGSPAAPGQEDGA
Sequence of BDNF/NT-3 growth factors receptor (Homo sapiens) (Q16620 32-822 limits assumed): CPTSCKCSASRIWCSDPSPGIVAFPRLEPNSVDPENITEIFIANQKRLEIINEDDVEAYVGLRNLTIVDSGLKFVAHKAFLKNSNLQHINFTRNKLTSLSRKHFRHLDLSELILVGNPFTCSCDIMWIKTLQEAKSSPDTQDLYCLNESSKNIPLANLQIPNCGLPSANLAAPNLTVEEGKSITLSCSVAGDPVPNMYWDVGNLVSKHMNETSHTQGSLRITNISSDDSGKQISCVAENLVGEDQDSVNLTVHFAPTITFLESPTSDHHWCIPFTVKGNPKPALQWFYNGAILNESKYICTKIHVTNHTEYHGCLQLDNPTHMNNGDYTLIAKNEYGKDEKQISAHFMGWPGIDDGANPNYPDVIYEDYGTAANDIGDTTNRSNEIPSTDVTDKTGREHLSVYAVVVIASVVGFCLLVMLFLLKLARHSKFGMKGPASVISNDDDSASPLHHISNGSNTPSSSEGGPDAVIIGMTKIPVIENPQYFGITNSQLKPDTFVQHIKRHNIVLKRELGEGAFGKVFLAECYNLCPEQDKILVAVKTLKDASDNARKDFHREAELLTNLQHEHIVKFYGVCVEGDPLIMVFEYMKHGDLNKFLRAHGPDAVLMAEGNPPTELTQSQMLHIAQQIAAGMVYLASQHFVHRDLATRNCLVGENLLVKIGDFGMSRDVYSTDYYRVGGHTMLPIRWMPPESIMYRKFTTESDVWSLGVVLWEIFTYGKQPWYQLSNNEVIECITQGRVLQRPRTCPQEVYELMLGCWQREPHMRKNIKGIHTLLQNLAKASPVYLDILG

CCc1cc(NC(=O)[C@H](O)c2cc(F)cc(F)c2)ccc1-c1cnc(N)c(C(=O)NC(C)C)c1
inhibition in vivo at 10 mg/kg (786-0): 40% | Activity [1]: 100% | Activity [2]: 70% | fraction unbound [3]: 0.002 | Activity [4]: 100%
